Like-named read-outs stand apart in the source and are kept apart here.
Assays:
KRas wild type = KRas wild type (Homo sapiens, UniProt P01116); test: Ras GTP binding domain inhibition assay (labeled-GTP competition, cell-free); parameters: made in house
In short: (§1)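 His-tagged GTPases were coated at 10-30 μg/mL onto nickel plates overnight at 4° C, then exposed to compound (20 μM, or serial dilutions for IC50) in buffer with 1% DMSO for 3 h at room temperature, with or without 10-30 μg/mL His-Sos (556-1049) in the final hour. Cy3- or Cy5-GTP (100 nM, 45 min) binding was measured after washing.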

Rac-1 = Rac-1 (Homo sapiens, UniProt P63000); test: as above; parameters: made in house
In short: as §1

Rho-A = Rho-A (Homo sapiens, UniProt P61586); test: as above; parameters: made in house
In short: as §1

[1] = tested on: ERK1/2 phosphorylation in Panc-1 cells; test: Western ERK1/2 cell-based phosphorylation assay; parameters: species or system human; details: at 10 μM, values in brackets < > are activation %, not inhibition
In short: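 Panc-1 cells starved overnight in 0.5% FBS, then exposed 6 h at 37 °C to compound at 10 μM final (0.3% DMSO) or serial dilutions for IC50. Stimulation with 1.5 ng/ml EGF for 15 min; phospho-ERK1/2 (Thr202/Tyr204) read by western blot on equal protein loads.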

[2] = tested on: MIA-PaCa-2 pancreatic cancer cell line (KRAS G12C); test: Cell proliferation assay (CellTiter 96 Aqueous One); type: cell-based; details: Homo sapiens; for IC50: MIA PaCa-2, MIA PaCa-2; for inhibition at 10 µM: MIA PaCa-2, read-out: % inh cell proliferation (10 μM) in MIA PaCa-2
In short: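 After overnight attachment, compounds are added (10 μM final or serial dilutions) and left 2–4 days, with viability then measured by MTS.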

[3] = with SOS, read-out: KRas wild type + SOS: % inh.
[4] = without SOS, read-out: KRas wild type: % inh.
[5] = with SOS, read-out: Rac-1 + SOS: % inh.
[6] = without SOS, read-out: Rac-1: % inh.
[7] = with SOS, read-out: Rho-A + SOS: % inh.
[8] = without SOS, read-out: Rho-A: % inh.

Compound | inhibition at 20 µM (KRas wild type; [3]) [%] | inhibition at 20 µM (KRas wild type; [4]) [%] | inhibition at 20 µM (Rac-1; [5]) [%] | inhibition at 20 µM (Rac-1; [6]) [%] | inhibition at 20 µM (Rho-A; [7]) [%] | inhibition at 20 µM (Rho-A; [8]) [%] | IC50 [2] [µM] | % inh of ERK1/2 phosphorylation in PANC-1 [1] | inhibition at 10 µM [2] [%]
CO[C@H]1C[C@@H](CNc2nc(-c3nccn3C)nc3sc(-c4ccn(C(C)C)n4)c(C)c23)C1 [Compound 47, 6-(1-Isopropyl-1H-pyrazol-3-yl)-N-(((1s,3s)-3-methoxycyclobutyl)methyl)-5-methyl-2-(1-methyl-1H-imidazol-2-yl)thieno[2,3-d]pyrimidin-4-amine] | 76 to 100 | 76 to 100 | 51 to 75 | 51 to 75 | 76 to 100 | 76 to 100 | < 1 | D (76-100% inhibition) | 76 to 100
Cc1c(-c2ccn(C(C)C)n2)sc2nc(-c3nccn3C)nc(NC3CCOC3)c12 (racemic) [Compound 37, rac-6-(1-Isopropyl-1H-pyrazol-3-yl)-5-methyl-2-(1-methyl-1H-imidazol-2-yl)-N-(tetrahydrofuran-3-yl)thieno[2,3-d]pyrimidin-4-amine] | 76 to 100 | 76 to 100 | 76 to 100 | 76 to 100 | 76 to 100 | 76 to 100 | 5 to 10 | 0 (0% inhibition) | 51 to 75
COCC1CCN(c2nc(-c3nccn3C)nc3sc(-c4ccn(C(C)C)n4)c(C(F)(F)F)c23)C1 (racemic) [Compound 74, Rac-6-(1-Isopropyl-1H-pyrazol-3-yl)-4-(3-(methoxymethyl)pyrrolidin-1-yl)-2-(1-methyl-1H-imidazol-2-yl)-5-(trifluoromethyl)thieno[2,3-d]pyrimidine] | 76 to 100 | 26 to 50 | – | 1 to 25 | – | 51 to 75 | < 1 | D (76-100% inhibition) | 76 to 100
CC(C)OCCn1ccnc1-c1nc(O)c2scc(-c3ccccn3)c2n1 [Compound 82, 2-(1-(2-Isopropoxyethyl)-1H-imidazol-2-yl)-7-(pyridin-2-yl)thieno[3,2-d]pyrimidin-4-ol] | 51 to 75 | 51 to 75 | – | 76 to 100 | – | 51 to 75 | 1 to 4.99 | A (1-25% inhibition) | 76 to 100
COCCn1ccnc1-c1nc(N[C@H]2C[C@@H](OC)C2)c2ccsc2n1 [Compound 9, N-((1s,3s)-3-Methoxycyclobutyl)-2-(1-(2-methoxyethyl)-1H-imidazol-2-yl)thieno[2,3-d]pyrimidin-4-amine] | 76 to 100 | 76 to 100 | 76 to 100 | 76 to 100 | 76 to 100 | 76 to 100 | > 10 | 0 (0% inhibition) | 1 to 25

Second part, led by results:

inhibition at 20 µM (KRas wild type; [3]) [%] | inhibition at 20 µM (KRas wild type; [4]) [%] | inhibition at 20 µM (Rac-1; [5]) [%] | inhibition at 20 µM (Rac-1; [6]) [%] | inhibition at 20 µM (Rho-A; [7]) [%] | inhibition at 20 µM (Rho-A; [8]) [%] | IC50 [2] [µM] | Compound | % inh of ERK1/2 phosphorylation in PANC-1 [1] | inhibition at 10 µM [2] [%]
76 to 100 | 76 to 100 | 76 to 100 | 76 to 100 | 76 to 100 | 76 to 100 | 1 to 4.99 | COC1CCN(c2nc(-c3nccn3C)nc3sc(-c4ccn(C(C)C)n4)c(C)c23)C1 (racemic) [Compound 34, rac-6-(1-Isopropyl-1H-pyrazol-3-yl)-4-(3-methoxypyrrolidin-1-yl)-5-methyl-2-(1-methyl-1H-imidazol-2-yl)thieno[2,3-d]pyrimidine] | D (76-100% inhibition) | 76 to 100
1 to 25 | 1 to 25 | 1 to 25 | 0 | 1 to 25 | 1 to 25 | > 10 | O=C(Nc1ccccn1)c1nc(O)c2scc(-c3ccccn3)c2n1 [Compound 24, 4-Hydroxy-N,7-di(pyridin-2-yl)thieno[3,2-d]pyrimidine-2-carboxamide] | 0 (0% inhibition) | 1 to 25

Reference: patent US20230227466A1, “SUBSTITUTED THIENOPYRIMIDINES THAT INTERACT WITH THE RAS SUPERFAMILY FOR THE TREATMENT OF CANCERS, INFLAMMATORY DISEASES, RASOPATHIES, AND FIBROTIC DISEASE” (SHY Therapeutics, LLC, priority 2020, published 2023)
